# Reference: patent US20060258729A1, “Antibacterial pyrazole carboxylic acid hydrazides” (priority 2002, published 2006)
# Columns and labels:
# [1] = target: T1, B. subtilis pol IIIC (Bacillus subtilis, UniProt P13267); assay: DNA polymerase assay, B. subtilis pol IIIC; assay type: biochemical
# T1 construct: made in house
# [2] = target: T2, B. subtilis pol IIIE (Bacillus subtilis, UniProt O34623); assay: DNA polymerase assay, B. subtilis pol IIIE; assay type: biochemical
# T2 construct: made in house
# [3] = target: T3, E. coli pol IIIE (Escherichia coli, UniProt P10443); assay: DNA polymerase assay, E. coli pol IIIE; assay type: biochemical; details: 80 μg/mL (190-260 μM) final concentration; all four dNTPs
# T3 construct: purchased Enzyco, Denver, Colo
# In short: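 Incorporation of 3H label into activated calf thymus DNA (0.4 mg/mL) from 10 μM of all four dNTPs, 10 min at 30 °C in pH 7.5 Tris/magnesium acetate, compounds in 1% DMSO. Reactions started with 0.025–0.06 units recombinant polymerase, stopped with cold TCA; IC50 and percent inhibition relative to DMSO control.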
# [4] = system: Bacillus subtilis strain BD54; assay: Inhibition of bacterial growth (MIC), Bs; assay type: cell-based; details: 16 to 18 hours, 37° C., read-out: Minimum Inhibitory Concentration for Bacterial Growth, Bs
# In short: (§1)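 Compounds are diluted two-fold in DMSO over 11 concentrations, commonly 80 down to 0.078 μg/mL, then combined with bacteria at 1×10^5 CFU/mL in LB or BHI (final DMSO 1%).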
# [5] = system: Staphylococcus aureus strain IP 8; assay: Inhibition of bacterial growth (MIC), Sa; assay type: cell-based; details: IP8, 16 to 18 hours, 37° C., read-out: Minimum Inhibitory Concentration for Bacterial Growth, Sa
# In short: as §1
# [6] = system: Enterococcus faecalis strain 29212; assay: Inhibition of bacterial growth (MIC), Efcl; assay type: cell-based; details: 16 to 18 hours, 37° C., read-out: Minimum Inhibitory Concentration for Bacterial Growth, Efcl
# In short: as §1
# [7] = system: E. faecium clinical isolate; assay: Inhibition of bacterial growth (MIC), Efcm; assay type: cell-based; details: Enterococcus faecium, 16 to 18 hours, 37° C., read-out: Minimum Inhibitory Concentration for Bacterial Growth, Efcm
# In short: as §1
# [8] = system: vancomycin-resistant Enterococcus strain B42762; assay: Inhibition of bacterial growth (MIC), VRE; assay type: cell-based; details: VRE, 16 to 18 hours, 37° C., read-out: Minimum Inhibitory Concentration for Bacterial Growth, VRE
# In short: as §1
# [9] = system: test strains of bacteria; assay: Inhibition of bacterial growth, whole panel of test strains; assay type: cell-based
# Procedure: Each compound was assayed against a panel of a strain of Bacillus subtilis, of strains of antibiotic-resistant and sensitive Enterococcus and Staphylococcus species, and of a strain of the Gram-negative bacterium Escherichia coli. Compounds were dissolved in DMSO at 100× the desired highest concentration and added to one well of a 96-well microassay plate. Two-fold serial drug dilutions were made across the plate in DMSO to yield 11 concentrations (usually 80-0.078 μg/mL) plus an untreated control. Drugs were then transferred to fresh plates using 1.5 μL per well. Log phase cultures were diluted to yield a concentration of 1×10^5 colony forming units/mL in either LB or BHI medium and transferred to the plates containing drug for a final volume of 150 μL. Each well, including the DMSO controls, contained a final concentration of 1% DMSO. Plates were incubated with shaking at 37° C. for 16 to 18 hours. Cell growth was determined by measuring optical density (570 nm, 1 cm path length) in a microplate reader. MIC (minimum inhibitory concentration) is equivalent to the lowest concentration at which growth is not observed. The bacterial strains and MIC determinations have been well characterized and are described elsewhere (Tarantino et al., Antimicrob. Agents Chemother., 43: 1982-1987 (1999); Daly et al., Antimicrob. Agents Chemother., 44: 2217-2221 (2000)).
# [10] = target: T2, B. subtilis pol IIIE; assay: DNA polymerase assay, B. subtilis pol IIIE; assay type: biochemical; remark: listed apart in the source
# T2 sequence (O34623 whole entry): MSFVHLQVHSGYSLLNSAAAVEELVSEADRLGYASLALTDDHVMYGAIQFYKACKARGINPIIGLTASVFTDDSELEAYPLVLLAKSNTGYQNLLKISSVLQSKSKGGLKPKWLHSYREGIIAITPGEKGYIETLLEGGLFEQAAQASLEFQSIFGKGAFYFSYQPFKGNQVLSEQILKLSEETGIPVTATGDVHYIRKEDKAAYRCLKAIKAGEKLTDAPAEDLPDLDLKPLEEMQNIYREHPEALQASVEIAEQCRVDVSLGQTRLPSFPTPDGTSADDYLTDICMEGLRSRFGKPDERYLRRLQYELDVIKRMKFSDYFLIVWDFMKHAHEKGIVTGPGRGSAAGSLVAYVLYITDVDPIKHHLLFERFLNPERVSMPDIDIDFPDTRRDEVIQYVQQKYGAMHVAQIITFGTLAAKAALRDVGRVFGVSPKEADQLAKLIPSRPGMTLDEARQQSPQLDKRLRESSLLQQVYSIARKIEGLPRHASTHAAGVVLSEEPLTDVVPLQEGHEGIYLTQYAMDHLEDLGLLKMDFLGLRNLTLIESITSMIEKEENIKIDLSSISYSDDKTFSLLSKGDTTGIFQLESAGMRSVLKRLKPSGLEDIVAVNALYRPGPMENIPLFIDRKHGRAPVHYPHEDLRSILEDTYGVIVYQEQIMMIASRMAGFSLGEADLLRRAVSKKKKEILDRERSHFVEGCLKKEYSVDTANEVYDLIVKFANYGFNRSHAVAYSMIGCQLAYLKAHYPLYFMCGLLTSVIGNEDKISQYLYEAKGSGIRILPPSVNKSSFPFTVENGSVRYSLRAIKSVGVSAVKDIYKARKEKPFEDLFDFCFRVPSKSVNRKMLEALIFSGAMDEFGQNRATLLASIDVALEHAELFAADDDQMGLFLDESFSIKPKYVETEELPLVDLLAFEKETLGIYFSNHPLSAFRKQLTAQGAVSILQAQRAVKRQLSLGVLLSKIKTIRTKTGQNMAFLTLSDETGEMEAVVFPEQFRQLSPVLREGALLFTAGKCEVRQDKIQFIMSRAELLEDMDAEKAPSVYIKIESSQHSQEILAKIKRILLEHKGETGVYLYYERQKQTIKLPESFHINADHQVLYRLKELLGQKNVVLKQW
# T1 sequence (P13267 whole entry): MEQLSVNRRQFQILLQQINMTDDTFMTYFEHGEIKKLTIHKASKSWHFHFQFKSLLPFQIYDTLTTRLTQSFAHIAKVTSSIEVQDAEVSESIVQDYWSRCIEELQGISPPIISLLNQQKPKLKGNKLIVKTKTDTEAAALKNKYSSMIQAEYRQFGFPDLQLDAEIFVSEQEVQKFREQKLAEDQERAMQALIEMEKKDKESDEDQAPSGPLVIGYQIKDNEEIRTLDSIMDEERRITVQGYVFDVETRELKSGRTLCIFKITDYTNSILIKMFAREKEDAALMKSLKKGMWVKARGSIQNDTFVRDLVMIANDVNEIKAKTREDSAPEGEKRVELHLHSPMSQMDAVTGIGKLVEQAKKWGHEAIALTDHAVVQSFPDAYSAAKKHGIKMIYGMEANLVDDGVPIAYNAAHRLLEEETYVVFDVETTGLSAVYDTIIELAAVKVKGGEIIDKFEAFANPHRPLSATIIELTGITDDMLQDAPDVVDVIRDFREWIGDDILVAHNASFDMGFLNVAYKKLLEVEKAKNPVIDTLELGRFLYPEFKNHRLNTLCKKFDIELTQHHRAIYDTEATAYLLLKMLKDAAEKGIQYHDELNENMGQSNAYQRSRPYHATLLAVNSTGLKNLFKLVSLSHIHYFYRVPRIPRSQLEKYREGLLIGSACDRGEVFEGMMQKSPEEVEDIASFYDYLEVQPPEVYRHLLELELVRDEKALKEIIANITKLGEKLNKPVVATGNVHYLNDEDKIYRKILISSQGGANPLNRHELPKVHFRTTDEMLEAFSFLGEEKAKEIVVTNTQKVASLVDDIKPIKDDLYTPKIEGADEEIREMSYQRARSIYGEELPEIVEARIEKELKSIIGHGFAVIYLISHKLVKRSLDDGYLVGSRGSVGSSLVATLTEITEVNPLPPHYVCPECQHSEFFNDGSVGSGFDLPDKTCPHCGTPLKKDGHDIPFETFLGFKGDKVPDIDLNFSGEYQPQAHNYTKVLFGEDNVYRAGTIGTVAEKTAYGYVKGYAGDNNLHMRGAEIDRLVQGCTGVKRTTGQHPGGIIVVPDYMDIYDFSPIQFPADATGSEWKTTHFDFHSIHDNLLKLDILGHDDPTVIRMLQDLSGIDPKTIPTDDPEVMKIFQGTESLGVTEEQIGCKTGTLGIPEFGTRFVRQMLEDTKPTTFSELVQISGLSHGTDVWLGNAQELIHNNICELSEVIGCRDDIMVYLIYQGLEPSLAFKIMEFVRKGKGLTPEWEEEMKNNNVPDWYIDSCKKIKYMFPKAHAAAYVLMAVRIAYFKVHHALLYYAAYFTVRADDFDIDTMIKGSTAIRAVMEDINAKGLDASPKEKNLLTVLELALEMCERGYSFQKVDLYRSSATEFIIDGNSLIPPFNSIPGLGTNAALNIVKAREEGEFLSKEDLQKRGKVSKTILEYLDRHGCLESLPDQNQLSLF
# T3 sequence (P10443 whole entry): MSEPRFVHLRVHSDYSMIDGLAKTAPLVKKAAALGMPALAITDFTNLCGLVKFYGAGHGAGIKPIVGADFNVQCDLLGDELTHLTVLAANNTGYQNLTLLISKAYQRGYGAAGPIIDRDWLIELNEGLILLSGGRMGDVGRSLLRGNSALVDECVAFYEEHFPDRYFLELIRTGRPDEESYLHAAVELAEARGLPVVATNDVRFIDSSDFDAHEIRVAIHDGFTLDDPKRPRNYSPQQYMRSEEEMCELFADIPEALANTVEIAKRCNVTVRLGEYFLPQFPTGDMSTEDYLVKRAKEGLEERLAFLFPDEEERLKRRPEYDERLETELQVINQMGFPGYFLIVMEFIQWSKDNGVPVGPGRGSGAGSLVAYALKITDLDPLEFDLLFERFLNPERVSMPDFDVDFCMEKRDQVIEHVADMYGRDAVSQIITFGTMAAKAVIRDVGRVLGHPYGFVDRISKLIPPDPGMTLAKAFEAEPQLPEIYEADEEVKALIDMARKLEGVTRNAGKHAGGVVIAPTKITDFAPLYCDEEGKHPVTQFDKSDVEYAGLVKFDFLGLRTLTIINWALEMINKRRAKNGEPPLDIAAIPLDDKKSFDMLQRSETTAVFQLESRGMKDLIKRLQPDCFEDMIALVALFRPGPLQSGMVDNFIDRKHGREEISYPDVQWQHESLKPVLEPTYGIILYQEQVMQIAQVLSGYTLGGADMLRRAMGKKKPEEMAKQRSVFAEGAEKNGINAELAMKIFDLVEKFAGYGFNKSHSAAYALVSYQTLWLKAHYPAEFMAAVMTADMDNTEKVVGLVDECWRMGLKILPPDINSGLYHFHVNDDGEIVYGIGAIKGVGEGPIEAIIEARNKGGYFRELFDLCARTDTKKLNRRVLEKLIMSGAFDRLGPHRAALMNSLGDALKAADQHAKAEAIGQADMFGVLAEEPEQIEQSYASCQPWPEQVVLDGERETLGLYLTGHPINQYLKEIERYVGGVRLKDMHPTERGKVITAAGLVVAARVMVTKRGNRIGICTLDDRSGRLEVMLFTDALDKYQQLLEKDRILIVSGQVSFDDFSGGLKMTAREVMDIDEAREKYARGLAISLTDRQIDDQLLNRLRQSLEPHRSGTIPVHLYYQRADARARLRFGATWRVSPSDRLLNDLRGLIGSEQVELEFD
structure (smiles),measurement,setting,value
COc1ccc(-c2cc(C(=O)NN=Cc3cc(OC)c(OC)c(OC)c3)[nH]n2)cc1 [Compound 17],IC50,"[1]; B. subtilis Pol IIIC IC50, 4 dNTPs, in the presence of all four dNTP substrates",36000 nM
same,IC50,"[1]; B. subtilis Pol IIIC IC50, −dATP, in the absence of dATP",3100 nM
same,IC50,"[1]; B. subtilis Pol IIIC IC50, −dCTP, in the absence of dCTP",2600 nM
same,IC50,"[1]; B. subtilis Pol IIIC IC50, −dGTP, in the absence of dGTP",1800 nM
same,inhibition at 80 µg/mL,"[2]; 80 μg/mL (190-260 μM) final concentration, all four dNTPs, read-out: Percent Enzymatic Inhibition B. subtilis pol IIIE",> 20%
same,IC50,"[2]; B. subtilis Pol IIIE IC50, 4 dNTPs, in the presence of all four dNTP substrates",> 780 µM
same,Percent Enzymatic Inhibition E. coli pol IIIE,[3],Inactive
same,MIC,[4],0.625 µg/mL
same,MIC,[5],1.25 µg/mL
same,MIC,[6],20 µg/mL
same,MIC,[7],5 µg/mL
same,MIC,[8],5 µg/mL
same,"Inhibition of bacterial growth, result in words (rank of MIC values)",[9],lowest MIC values
same,IC50,"[10]; B. subtilis Pol IIIE IC50, −dATP, in the absence of dATP",> 780 µM
same,IC50,"[10]; B. subtilis Pol IIIE IC50, −dCTP, in the absence of dCTP",> 780 µM
same,IC50,"[10]; B. subtilis Pol IIIE IC50, −dGTP, in the absence of dGTP",> 780 µM
